# Measurements from patent publication US20260101892A1, “METHOD TO INHIBIT PROLIFERATION OF A PHYTOPATHOGEN ON PLANTS AND COMPOSITIONS USED FOR THIS PURPOSE” (CYSBIO APS, priority 2022, published 2026).
# Like-named read-outs stand apart in the source and are kept apart here.
# Columns and labels:
# Cercospora beticola = assay: Cercospora leaf spot disease in sugarbeet; format: in vivo; conditions: crop Beta vulgaris vulg. altissima / sugarbeet
# pyronophora graminea = assay: Seed dressing against barley stripe
# Description: (§2) To investigate if zosteric acid can be applied as a seed dressing agent to prevent different seed borne fungal infections, the ability of zosteric acid to prevent infection of wheat and barley with the common bunt of wheat caused by tilletia caries and barley stribe, caused by pyronophora graminea was tested.
# (§3) To investigate if zosteric acid can be applied as a seed dressing agent to prevent different seed borne fungal infections, the ability of zosteric acid to prevent infection of wheat and barley with the common bunt of wheat caused by tilletia caries and barley stribe, caused by pyronophora graminea) was tested.
# Ustilago nuda = assay: Loose smut of barley; format: in vivo; conditions: crop Barley
# tilletia caries = assay: Seed dressing against common bunt of wheat
# Description: as §2, §3
# [1] = tested on: powdery mildew (Podosphaera aphanis); assay: Powdery mildew in strawberries, controlled environment trial; conditions: crop Strawberries
# Description: The efficacy was evaluated as % area of leaves that were infected with disease based on evaluation of 50 leaves from each plant. The evaluation was performed 30 days after the first treatment and 10 days after the last treatment.
# Five different treatments were applied; 1) an untreated control, 2) zosteric acid at 3%, 3) zosteric acid at 6%, 4) zosteric acid at 9%, 5) Karma at 3 kg/ha. […] Four treatment applications were performed at day 0, 7, 14, and 21 respectively. Prior to each application the infection and phytotoxicity of the plants were evaluated and scored.
# Puccinia striiformis = assay: Yellow rust in wheat, greenhouse trial, contact fungicide; conditions: crop Wheat
# Description: A greenhouse trial was conducted to investigate if zosteric acid could be applied as a contact fungicide to control yellow rust in wheat. Wheat was sowed in one-liter pots, with five replicates per treatment. 14 days after sowing, plants were sprayed with 150 L/ha of 10% zosteric acid with 0.1% Tween. For reference, an untreated control, a treatment with 0.1% Tween, and a treatment with a currently used standard fungicide treatment for yellow rust was also included in the test. One day after spraying of the plants, they were inoculated with Puccinia striiformis which is the causative agent of yellow rust. Plants were assessed for attack with yellow rust 13, 19 and 21 days after infection with yellow rust.
# Aspergillus niger = conditions: Common mold; N/A (In vitro); Villa et al 2010; cited from earlier work
# Penicillium citrinum = conditions: Mold on citrus fruits; N/A (In vitro); Villa et al 2010; cited from earlier work
# Septoria tritici = assay: Septoria leaf blotch; format: in vivo
# Leptosphaeria maculans = assay: Blackleg disease in winter rape; format: in vivo; conditions: crop Brassica napus / winter rape
# [2] = tested on: downy mildew in grapevine (plasmopara viticola); assay: Downy mildew in grapevine, controlled environment trial, foliar spray
# Penicillium digitatum = assay: Post-harvest preservation of lemons; format: in vivo
# Description: (§1) To investigate if zosteric acid and/or coumaric acid can protect fruit and vegetables against post-harvest infection with different fungi, zosteric and coumaric acids fungicidal effect was tested in capsicums and lemons infected with Alternaria alternata and Penicillium digitatum, respectively. The tests were performed by acquiring the relevant fruit and vegetables from the local supermarket. Both fruit and vegetables were bought as organic produce to ensure a minimum of pesticides had already been applied. […] Each application treatment was performed in triplicate on three separate pieces of produce. After treatment, the produce was allowed to dry in a sterile laminar flow cabinet followed by a second round of application and drying. The produce was then inoculated with the relevant fungal spores using a grafting stick. […] The inoculated produce was subsequently placed in […] plastic bags to prevent contamination with other organisms and to prevent the produce from drying out due to air circulation in the incubator. The wrapped capsicums and lemons were placed at 10° C. and the fungal growth followed by measuring the diameter of the growth from the point of inoculation for 25 days.
# [3] = tested on: European grapes (Vitis vinifera); assay: Phytotoxicity evaluation in the grapevine downy mildew trial
# [4] = tested on: strawberries (Fragaria sp.); assay: Phytotoxicity evaluation in the strawberry powdery mildew trial; format: in vivo; conditions: at concentrations that control disease
# [5] = tested on: Blumeria graminis f. sp. tritici; assay: Powdery mildew in wheat; format: in vivo; conditions: crop Wheat
# [6] = tested on: potatoes (Solanum tuberosum, variety Venezia); assay: Phytotoxicity assessment in the potato blight climate chamber test; format: in vivo; conditions: throughout the trials (0.1%, 1%, 5% zosteric acid)
# Description: The application was conducted with a Research Track Sprayer and three different concentrations of zosteric acid (0.1%, 1%, and 5%) were sprayed one day before pathogen inoculation and two different concentrations of zosteric acid (1% and 5%) were sprayed after inoculation as soon as the infection got visible. Plants were assessed for phytotoxicity and pest severity 0, 4, and 7 days after the curative application.
# [7] = tested on: Colletotrichum lindemuthianum; conditions: Bean anthracnose; crop Bean; Stanley 2002; cited from earlier work
# [8] = tested on: late potato blight (Phytophtora infestans); format: in vivo, Phytophthora infestans; conditions: for reduction of pest severity: 5% zosteric acid and 0.3 L/ha BREAK THRU, vs untreated control
# Magnaporthe grisea = conditions: Rice blast; crop Rice; Stanley 2002; cited from earlier work
# Alternaria alternata = assay: Post-harvest preservation of capsicums; format: in vivo; conditions: capsicums sprayed twice, 10° C., followed 25 days, triplicate
# Description: as §1
smiles,measurement,setting,value
O=C(O)/C=C/c1ccc(OS(=O)(=O)O)cc1 [zosteric acid],zosteric acid effective (Yes/No),Cercospora beticola,not effective and No
same,zosteric acid effective (Yes/No),"pyronophora graminea; Barley stripe, crop Barley",Yes
same,reduction of percentage of infected plant ears compared to untreated control,pyronophora graminea; barley seeds treated with 0.1% zosteric acid,more than 2 fold
same,reduction of percentage of infected plant ears compared to untreated control,pyronophora graminea; barley seeds treated with 1% zosteric acid,more than 2 fold
same,zosteric acid effective (Yes/No),Ustilago nuda,no efficacy and No
same,zosteric acid effective (Yes/No),"tilletia caries; Common bunt of wheat, crop Wheat",good efficacy and Yes
same,effect in combination with Redigo Pro,"tilletia caries; protection against common bunt of wheat, seed dressing",strong synergistic effect
same,reduction of percentage of infected plant ears compared to untreated control,tilletia caries; wheat seeds treated with 0.1% zosteric acid,more than 2 fold
same,reduction of percentage of infected plant ears compared to untreated control,tilletia caries; wheat seeds treated with 1% zosteric acid,more than 2 fold
same,zosteric acid effective (Yes/No),[1],Yes
same,zosteric acid effective (Yes/No),Puccinia striiformis,effective and Yes
same,zosteric acid effective (Yes/No),Aspergillus niger,Yes
same,zosteric acid effective (Yes/No),Penicillium citrinum,Yes
same,zosteric acid effective (Yes/No),Septoria tritici,not effective and No
same,zosteric acid effective (Yes/No),Leptosphaeria maculans,not effective and No
same,zosteric acid effective (Yes/No),"[2]; Downy mildew in wine, crop Vitis vinifera / European grape",highly effective and Yes
same,efficacy compared with positive control Funguran Progress (copper),[2]; Example 9 trial,comparable to the positive control Funguran Progress
same,dose response of disease control,"[2]; increasing doses of zosteric acid, scored 17 days after application",clear dose response
same,time after inoculation until P. digitatum growth was observed,"Penicillium digitatum; lemons sprayed twice, 10° C., followed 25 days, triplicate",19 days
same,replicates with P. digitatum growth at end of test period,"Penicillium digitatum; lemons, day 25, three replicates",only a single replicate
same,phytotoxicity,"[3]; 1% zosteric acid, scored 13 days after application",< 0.5%
same,phytotoxicity,"[3]; 5% treatment, Example 9 trial",7%
same,phytotoxic effects,"[3]; at the effective concentration, scored 13 days after application",does not have significant phytotoxic effects
same,phytotoxicity,"[3]; high concentrations (>2%), scored 13 days after application",start to be phytotoxic
same,phytotoxicity,[4],no phytotoxicity
same,zosteric acid effective (Yes/No),[5],not effective and No
same,phytotoxic effects,[6],No phytotoxic effects were observed
same,zosteric acid effective (Yes/No),[7],Yes
same,reduction of pest severity,[8]; 0 days from the curative treatment,7.8%
same,reduction of pest severity,[8]; 4 days from the curative treatment,7.3%
same,reduction of pest severity,[8]; 7 days from the curative treatment,6.6%
same,zosteric acid effective (Yes/No),"[8]; Potato blight, crop Solanum tuberosum / potato",highly effective and Yes
same,zosteric acid effective (Yes/No),Magnaporthe grisea,Yes
same,time after inoculation until A. alternata growth was displayed,Alternaria alternata,19 days
